Each block holds one compound with its values, some of them ahead of it.
Tests used:
[1] = target: T1, Metabotropic glutamate receptor 7 (Homo sapiens, UniProt Q14831); assay: Agonist activity at human mGlu7 expressed in CHO cells assessed as reduction in forskolin-induced cAMP production; format: functional, cell-based
[2] = target: Metabotropic glutamate receptor 4 (Homo sapiens, UniProt Q14833); assay: Agonist activity at mGlu4 (unknown origin)
[3] = target: T1, Metabotropic glutamate receptor 7; assay: Agonist activity at mGlu7 (unknown origin)
[4] = Lipophilicity, logP of the compound; format: physicochemical; details: octanol/water
[5] = target: T1, Metabotropic glutamate receptor 7; assay: Allosteric agonist activity at human mGlu7 expressed in CHO cells assessed as reduction in forskolin-induced cAMP production after 30 mins by cAMP reagent-based assay; format: functional, cell-based
[6] = target: T1, Metabotropic glutamate receptor 7; assay: Allosteric agonist activity at human mGlu7 expressed in CHO cells assessed as reduction in forskolin-induced cAMP production after 30 mins by cAMP reagent-based assay relative to control; format: functional, cell-based
[7] = target: T1, Metabotropic glutamate receptor 7; assay: Agonist activity at human mGlu7
[8] = target: Metabotropic glutamate receptor 7 (Mus musculus, UniProt Q68ED2); assay: Agonist activity at mouse mGlu7
[9] = target: Metabotropic glutamate receptor 8 (Rattus norvegicus, UniProt P70579); assay: Agonist activity at rat mGlu8 receptor expressed in HEK cell co-expressing Galpha15 (unknown origin) assessed as […] intracellular Ca2+ mobilization by Fluo-4-AM dye based fluorescence assay; format: functional
[10] = target: T2, Metabotropic glutamate receptor 3 (Homo sapiens, UniProt Q14832); assay: Allosteric agonist activity at human mGlu3 expressed in CHO cells assessed as reduction in forskolin-induced cAMP production after 30 mins by cAMP reagent-based assay; format: functional, cell-based
[11] = target: T3, Metabotropic glutamate receptor 5 (Homo sapiens, UniProt P41594); assay: Allosteric agonist activity at human mGlu5 expressed in CHO cells assessed as reduction in forskolin-induced cAMP production after 30 mins by cAMP reagent-based assay; format: functional, cell-based
[12] = target: T1, Metabotropic glutamate receptor 7; assay: Negative allosteric modulator activity at human mGlu7 assessed as reduction in Ca2+ mobilization by HTS assay; format: functional
[13] = target: Metabotropic glutamate receptor 1 (Homo sapiens, UniProt Q13255); assay: Allosteric activity at mGlu1 (unknown origin)
[14] = target: Metabotropic glutamate receptor 2 (Homo sapiens, UniProt Q14416); assay: Allosteric activity at mGlu2 (unknown origin)
[15] = target: T2, Metabotropic glutamate receptor 3; assay: Allosteric activity at mGlu3 (unknown origin)
[16] = target: T3, Metabotropic glutamate receptor 5; assay: Allosteric activity at mGlu5 (unknown origin)
[17] = target: Metabotropic glutamate receptor 6 (Homo sapiens, UniProt O15303); assay: Allosteric activity at mGlu6 (unknown origin)
[18] = […], Kp in mouse at 10 mg/kg, ip after 1 hr; format: ADME, organism-based; details: in vivo

T1 sequence (Q14831 whole entry): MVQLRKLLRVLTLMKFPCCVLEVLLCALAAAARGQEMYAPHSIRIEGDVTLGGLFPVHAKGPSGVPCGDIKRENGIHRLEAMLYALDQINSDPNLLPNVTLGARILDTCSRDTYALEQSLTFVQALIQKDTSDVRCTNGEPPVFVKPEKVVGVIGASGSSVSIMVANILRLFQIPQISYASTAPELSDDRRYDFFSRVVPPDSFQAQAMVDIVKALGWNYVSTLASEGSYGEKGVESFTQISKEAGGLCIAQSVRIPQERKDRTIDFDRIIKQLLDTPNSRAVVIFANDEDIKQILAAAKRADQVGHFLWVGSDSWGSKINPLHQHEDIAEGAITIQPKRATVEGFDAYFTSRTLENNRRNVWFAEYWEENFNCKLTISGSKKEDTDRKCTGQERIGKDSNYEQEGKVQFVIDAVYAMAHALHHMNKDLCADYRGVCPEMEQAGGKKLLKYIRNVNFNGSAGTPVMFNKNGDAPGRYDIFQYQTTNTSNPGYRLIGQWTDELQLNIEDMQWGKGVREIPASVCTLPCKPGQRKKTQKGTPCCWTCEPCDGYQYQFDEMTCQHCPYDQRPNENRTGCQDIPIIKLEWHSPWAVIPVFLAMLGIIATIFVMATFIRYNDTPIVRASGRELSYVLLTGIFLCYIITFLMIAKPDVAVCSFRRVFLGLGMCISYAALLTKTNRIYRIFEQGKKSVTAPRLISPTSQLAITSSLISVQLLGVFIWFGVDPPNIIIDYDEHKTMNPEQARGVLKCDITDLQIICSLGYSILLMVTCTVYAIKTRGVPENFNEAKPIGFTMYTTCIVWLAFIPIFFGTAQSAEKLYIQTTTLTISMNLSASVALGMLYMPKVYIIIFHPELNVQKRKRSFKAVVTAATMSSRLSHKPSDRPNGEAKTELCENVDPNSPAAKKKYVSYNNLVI
T3 sequence (P41594 whole entry): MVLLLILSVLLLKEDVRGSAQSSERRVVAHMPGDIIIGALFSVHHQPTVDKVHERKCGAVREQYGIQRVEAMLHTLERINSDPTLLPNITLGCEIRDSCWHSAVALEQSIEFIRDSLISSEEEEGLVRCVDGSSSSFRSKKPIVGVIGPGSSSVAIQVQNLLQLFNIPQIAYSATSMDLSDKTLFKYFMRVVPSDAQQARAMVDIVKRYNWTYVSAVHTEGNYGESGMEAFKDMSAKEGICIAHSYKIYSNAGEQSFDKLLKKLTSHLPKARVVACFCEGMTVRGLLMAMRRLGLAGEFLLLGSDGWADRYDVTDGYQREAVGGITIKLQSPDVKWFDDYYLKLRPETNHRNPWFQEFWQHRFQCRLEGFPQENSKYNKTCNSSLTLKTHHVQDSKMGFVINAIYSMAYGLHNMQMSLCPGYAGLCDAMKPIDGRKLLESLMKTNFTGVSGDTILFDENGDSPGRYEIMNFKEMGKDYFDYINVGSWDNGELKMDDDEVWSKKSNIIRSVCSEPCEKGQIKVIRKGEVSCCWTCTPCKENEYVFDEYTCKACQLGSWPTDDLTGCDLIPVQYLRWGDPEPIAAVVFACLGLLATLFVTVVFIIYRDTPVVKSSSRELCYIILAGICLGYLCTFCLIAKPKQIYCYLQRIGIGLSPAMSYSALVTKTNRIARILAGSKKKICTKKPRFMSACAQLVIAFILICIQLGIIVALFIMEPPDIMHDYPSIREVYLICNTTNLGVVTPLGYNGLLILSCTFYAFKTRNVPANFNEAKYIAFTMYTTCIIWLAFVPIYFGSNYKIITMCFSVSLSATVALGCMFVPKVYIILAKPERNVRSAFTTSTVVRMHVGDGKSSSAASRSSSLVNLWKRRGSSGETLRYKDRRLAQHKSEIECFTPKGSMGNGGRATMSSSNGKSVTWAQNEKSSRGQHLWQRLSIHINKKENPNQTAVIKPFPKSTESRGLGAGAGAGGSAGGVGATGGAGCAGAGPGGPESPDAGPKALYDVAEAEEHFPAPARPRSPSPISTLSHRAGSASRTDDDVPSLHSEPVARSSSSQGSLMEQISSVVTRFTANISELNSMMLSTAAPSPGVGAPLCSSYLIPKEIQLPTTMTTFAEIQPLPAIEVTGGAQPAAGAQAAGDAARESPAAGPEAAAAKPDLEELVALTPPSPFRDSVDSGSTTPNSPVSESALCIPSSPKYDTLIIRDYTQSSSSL
T2 sequence (Q14832 whole entry): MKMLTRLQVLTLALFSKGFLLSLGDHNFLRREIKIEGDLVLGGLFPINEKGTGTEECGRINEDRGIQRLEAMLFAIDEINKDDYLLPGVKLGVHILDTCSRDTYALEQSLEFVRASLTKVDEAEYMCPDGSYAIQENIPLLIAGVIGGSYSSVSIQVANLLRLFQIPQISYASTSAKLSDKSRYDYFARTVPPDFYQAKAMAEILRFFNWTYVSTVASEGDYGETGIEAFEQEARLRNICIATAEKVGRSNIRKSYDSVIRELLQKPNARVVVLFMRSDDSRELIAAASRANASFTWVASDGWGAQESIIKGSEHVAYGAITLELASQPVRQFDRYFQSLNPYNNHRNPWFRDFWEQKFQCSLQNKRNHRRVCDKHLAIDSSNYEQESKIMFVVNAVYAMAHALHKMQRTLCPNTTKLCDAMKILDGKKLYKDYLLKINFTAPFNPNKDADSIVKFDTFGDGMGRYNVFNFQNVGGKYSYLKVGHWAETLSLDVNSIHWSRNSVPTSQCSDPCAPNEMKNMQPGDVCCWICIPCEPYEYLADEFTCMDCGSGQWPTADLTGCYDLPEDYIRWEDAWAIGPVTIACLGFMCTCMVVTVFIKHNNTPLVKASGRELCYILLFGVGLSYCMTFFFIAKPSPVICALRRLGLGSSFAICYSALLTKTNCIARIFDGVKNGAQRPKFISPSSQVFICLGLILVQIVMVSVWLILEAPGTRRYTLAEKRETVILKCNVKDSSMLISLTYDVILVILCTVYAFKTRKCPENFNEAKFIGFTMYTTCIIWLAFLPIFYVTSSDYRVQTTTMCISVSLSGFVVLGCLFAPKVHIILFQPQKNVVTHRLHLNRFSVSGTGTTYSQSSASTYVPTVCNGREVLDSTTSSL
Metabotropic glutamate receptor 2, sequence (Q14416 whole entry): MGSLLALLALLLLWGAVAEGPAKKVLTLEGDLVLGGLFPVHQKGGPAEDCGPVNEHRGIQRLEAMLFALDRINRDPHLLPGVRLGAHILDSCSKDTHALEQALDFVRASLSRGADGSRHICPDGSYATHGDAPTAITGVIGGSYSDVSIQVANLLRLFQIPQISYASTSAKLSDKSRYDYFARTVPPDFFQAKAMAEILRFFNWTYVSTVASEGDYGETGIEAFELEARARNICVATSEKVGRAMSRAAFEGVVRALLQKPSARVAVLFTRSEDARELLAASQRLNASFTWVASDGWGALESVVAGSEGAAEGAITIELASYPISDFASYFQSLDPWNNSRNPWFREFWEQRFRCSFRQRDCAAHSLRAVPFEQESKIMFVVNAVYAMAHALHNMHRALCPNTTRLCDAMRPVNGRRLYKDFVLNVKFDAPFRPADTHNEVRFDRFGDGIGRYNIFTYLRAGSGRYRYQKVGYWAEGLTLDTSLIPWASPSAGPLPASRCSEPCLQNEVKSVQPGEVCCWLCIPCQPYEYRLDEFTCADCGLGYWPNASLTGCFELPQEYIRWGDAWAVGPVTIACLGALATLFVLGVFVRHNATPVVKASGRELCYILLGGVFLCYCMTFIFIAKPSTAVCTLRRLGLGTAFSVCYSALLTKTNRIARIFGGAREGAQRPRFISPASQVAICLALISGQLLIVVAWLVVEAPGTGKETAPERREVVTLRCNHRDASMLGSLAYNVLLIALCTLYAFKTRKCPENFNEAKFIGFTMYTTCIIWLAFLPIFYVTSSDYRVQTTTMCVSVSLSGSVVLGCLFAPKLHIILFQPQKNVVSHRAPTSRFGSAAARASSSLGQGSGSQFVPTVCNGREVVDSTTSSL
Metabotropic glutamate receptor 1, sequence (Q13255 whole entry): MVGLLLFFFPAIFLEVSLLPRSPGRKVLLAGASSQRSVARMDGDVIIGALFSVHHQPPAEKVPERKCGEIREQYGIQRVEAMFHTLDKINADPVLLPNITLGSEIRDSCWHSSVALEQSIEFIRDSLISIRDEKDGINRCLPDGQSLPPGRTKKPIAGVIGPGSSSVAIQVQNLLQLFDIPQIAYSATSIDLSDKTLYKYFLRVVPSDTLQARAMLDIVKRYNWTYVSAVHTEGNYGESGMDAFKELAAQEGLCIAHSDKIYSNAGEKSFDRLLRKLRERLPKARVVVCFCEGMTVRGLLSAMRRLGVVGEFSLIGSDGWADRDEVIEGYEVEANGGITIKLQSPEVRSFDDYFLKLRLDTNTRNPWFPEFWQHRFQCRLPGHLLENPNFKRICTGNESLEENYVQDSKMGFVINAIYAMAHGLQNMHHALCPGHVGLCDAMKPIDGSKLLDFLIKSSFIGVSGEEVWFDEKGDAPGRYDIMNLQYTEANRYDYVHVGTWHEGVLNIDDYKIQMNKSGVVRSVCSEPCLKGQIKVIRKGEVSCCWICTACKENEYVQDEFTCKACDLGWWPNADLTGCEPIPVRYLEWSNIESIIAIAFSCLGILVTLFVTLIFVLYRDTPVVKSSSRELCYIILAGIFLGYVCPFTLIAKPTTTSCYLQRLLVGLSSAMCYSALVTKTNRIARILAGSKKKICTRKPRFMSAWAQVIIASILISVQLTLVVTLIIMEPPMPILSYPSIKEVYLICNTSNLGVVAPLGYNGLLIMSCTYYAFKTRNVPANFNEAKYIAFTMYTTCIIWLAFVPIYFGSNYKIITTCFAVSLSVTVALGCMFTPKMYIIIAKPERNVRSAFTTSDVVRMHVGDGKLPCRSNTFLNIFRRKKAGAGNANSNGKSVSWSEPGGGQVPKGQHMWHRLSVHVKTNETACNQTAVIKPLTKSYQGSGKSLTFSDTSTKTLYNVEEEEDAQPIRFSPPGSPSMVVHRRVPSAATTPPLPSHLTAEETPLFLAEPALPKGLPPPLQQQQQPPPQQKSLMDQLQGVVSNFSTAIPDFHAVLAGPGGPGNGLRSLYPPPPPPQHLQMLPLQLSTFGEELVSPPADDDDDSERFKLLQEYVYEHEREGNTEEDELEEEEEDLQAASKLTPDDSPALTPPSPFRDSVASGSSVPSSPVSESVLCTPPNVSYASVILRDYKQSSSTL
Metabotropic glutamate receptor 7 (Mus musculus, UniProt Q68ED2), sequence (Q68ED2 whole entry): as the sequence (Q14831 whole entry) above, with R5G, A27V, S488T, A520P, D578N counted along it

SMILES: CNCC[C@H](NCC(=O)N1CCCc2ccccc21)c1ccccc1
logP [4]: 3

SMILES: c1ccc(C(NCCNC(c2ccccc2)c2ccccc2)c2ccccc2)cc1
EC50 [5]: 158 nM
Emax [6]: 62%
logP [4]: 5.9

SMILES: CNC(=O)N1CCCC(CN2CCC(OC(c3ccccc3)c3ccccc3)CC2)C1 (stereo not given)
pEC50 [10]: 6.2
EC50 [11]: 631 nM

SMILES: COc1ccc(-c2c(C)nn3c(C(F)(F)F)cc(C)nc23)c(F)c1F
EC50 [13]: > 10000 nM
IC50 [13]: > 10000 nM
EC50 [14]: > 10000 nM
IC50 [14]: > 10000 nM
EC50 [15]: > 10000 nM
IC50 [15]: > 10000 nM
EC50 [16]: > 10000 nM
IC50 [16]: > 10000 nM
EC50 [17]: > 10000 nM
IC50 [17]: > 10000 nM
Kp at 1 h [18]: 2.1

Continued, values first:

EC50 [1]: 1 nM
SMILES: O=C(C[C@H](NCC1CC1)c1ccccc1)N1CCCOc2ccccc21

EC50 [2]: 2100 nM
SMILES: CCc1nn2c(C(F)(F)F)cc(C)nc2c1-c1cc(F)c(OC)cc1F

EC50 [3]: 1.21 nM
SMILES: C[C@H](C(=O)NC1COc2ccc(F)cc2C1O)c1ccccc1 (stereo not given in full)

EC50 [3]: 29.2 nM
SMILES: O=C(NCc1ccccc1F)C1c2ccccc2CC(=O)N1CC1CC1 (stereo not given)

EC50 [7]: 6.9 nM
EC50 [8]: 1.8 nM
SMILES: C[C@H](C(=O)NC1COc2ccccc2C1S(C)(=O)=O)c1ccc(F)cc1 (stereo not given in full)

EC50 [9]: 930 nM
SMILES: COC(=O)c1ccc(-n2c(C)cc(C(=O)CSc3ccc(NC(C)=O)cc3)c2C)cc1

IC50 [12]: 63 nM
SMILES: CCc1nc2c(o1)CC(c1ccc(C)cc1C)CC2=O (stereo not given)

From ChEMBL document CHEMBL4368890, “Progress toward allosteric ligands of metabotropic glutamate 7 (mGlu7) receptor: 2008-present” (Medchemcomm, 2019)
